These results are taken from patent publication US9533999B2, “Fused thiazin-3-ones as KCA3.1 inhibitors” (Boehringer Ingelheim International GmbH, priority 2012, dated 2017).

One test addresses human KCa3.1 (Homo sapiens (Human), UniProt O15554). As to the kind of experiment: KCa3.1 Assay (FLIPR thallium influx). In kind it is cell-based. The note with it: HEK293 cells over-expressing human KCa3.1; Tl+ influx, FLIPR dye; 15 min compound treatment. Here is the method:
HEK293 cells over-expressing human KCa3.1 are used to measure the effects of compounds in inhibiting the KCa3.1 channel function. The assay is based on measuring the influx of Tl^+ through KCa3.1 using a FLIPR dye assay (FLIPR Potassium Ion Channel Assay Kit #R8154 by Molecular Devices). The day before the assay HEK293/KCa3.1 cells are seeded on a 384 well plate. On the day of the assay, media is removed and replaced with Molecular Devices Potassium Ion Channel dye then incubated for 1 hour according to manufacturer's recommendations. The cells are then treated with compounds or DMSO control for 15 min, followed by addition of thallium (final concentration=1.5 mM) and ionomycin (final concentration=1 uM). The plate is read on HAMAMATSU […] measuring fluorescence signal for 50 seconds using (Em: 565-625 nm). Data analysis: HAMAMATSU 6000 data are exported using max-min value for frame 10 and 40 and corrected by spatial uniformity correction. Percent of control (POC) is calculated as 100×(max-minFlsample−max-minFllow)/(max-minFlhi−max-minFllow). Max-min Flsample is max-min value of each sample well containing test compound. Max-min Fllow is average max-min value of wells containing reference inhibitory compound. Max-min Flhi is average max-min value of wells containing DMSO. IC50 values are determined by nonlinear curve fitting of the data from a duplicate 11-point concentration-response curve.
For the molecule `O=C1CSc2cccnc2N1Cc1ccc(Cl)c(S(=O)(=O)C(F)(F)F)c1` [II-8], the midpoint of inhibition, the IC50, lay at 0.047 µM. This lies in the double-digit nanomolar range. Still for that read-out and setting: for `O=C1CS(=O)(=O)c2ncsc2N1Cc1cccc(OC(F)(F)F)c1` [Compound I-31] the value was 2.2 µM; for `O=C1CS(=O)(=O)c2cccnc2N1CCc1cccc(Cl)c1` [Compound I-16], 2 µM.

As for `NC(=O)c1ccc2c(n1)N(Cc1ccc(Cl)c(C(F)(F)F)c1)C(=O)CS2` [II-3], half-maximal inhibition (IC50) was put at 0.18 µM. Against the preceding molecule, the IC50 is about 11-fold lower. Turning to `O=C1CSc2ncsc2N1Cc1ccc(F)c(OC(F)(F)F)c1` [II-17], the IC50 turned out to be 0.06 µM. This IC50 is about 3-fold lower than that of the molecule before. Still for that read-out and setting: for `CC(c1cccc(C(F)(F)F)c1)N1C(=O)CSc2cccnc21` (stereo not shown) [II-4] the value was 0.041 µM; for `O=C1CS(=O)(=O)c2cccnc2N1CCc1cccc(C(F)(F)F)c1` [Compound I-7], 0.35 µM. The molecule `CC(c1cccc(C(F)(F)F)c1)N1C(=O)CS(=O)(=O)c2cccnc21` (stereo not shown) [Compound I-2] came in with an IC50 of 0.12 µM. Molecule `CC(c1cc(C(F)(F)F)nn1C)N1C(=O)CSc2cccnc21` (stereo not shown) [II-6] showed an IC50 of 3.6 µM. Compared with the last molecule, the IC50 is about 30-fold higher. Still for that read-out and setting: the result for `O=C1CSc2cccnc2N1Cc1cccc(OC(F)(F)F)c1` [II-1, 4-(3-trifluoromethoxy-benzyl)-4H-pyrido[3,2-b][1,4]thiazin-3-one] reads 0.052 µM; that for `CC(c1cccc(C(F)(F)F)c1)N1C(=O)CSc2ncsc21` (stereo not shown) [II-16], 0.17 µM; that for `O=C1CSc2cccnc2N1Cc1cccc(Br)c1` [II-10], 0.31 µM. In the case of `CC(C)c1nc2c(s1)S(=O)(=O)CC(=O)N2Cc1cccc(OC(F)(F)F)c1` [Compound I-36], half-maximal inhibition (IC50) was put at 0.38 µM. This IC50 and that of the molecule before are within 1.5-fold of each other. Still for that read-out and setting: the result for `O=C1CSc2cccnc2N1Cc1ccc(Cl)c(C(F)(F)F)c1` [II-5] reads 0.046 µM; that for `CC(c1cccc(C(F)(F)F)c1)N1C(=O)CS(=O)(=O)c2ncc(Br)cc21` (stereo not shown) [Compound I-21], 0.24 µM. With `O=C1CSc2ncsc2N1Cc1cccc(OC(F)(F)F)c1` [II-13], it took 0.16 µM to reach half-maximal inhibition (IC50). Against the preceding molecule, the IC50 is about 1.5-fold lower.

In turn, `O=C1CS(=O)(=O)c2ncsc2N1Cc1cccc(C(F)(F)F)c1` [Compound I-25, 4,4-dioxo-7-(3-trifluoromethyl-benzyl)-4,7-dihydro-5H-41ambda*6*-thiazolo[4,5-b][1,4]thiazin-6-one] came in with an IC50 of 3.7 µM. On the same count and under the same terms, the result for `O=C1CSc2cc(Cl)cnc2N1Cc1ccc(F)c(OC(F)(F)F)c1` [II-9] reads 0.13 µM; that for `COC(=O)c1ccc2c(n1)N(Cc1ccc(F)c(OC(F)(F)F)c1)C(=O)CS2(=O)=O` [Compound I-18], 0.088 µM; that for `O=C1CS(=O)(=O)c2sccc2N1Cc1ccc(F)c(OC(F)(F)F)c1` [Compound I-40], 0.048 µM. Turning to `CC(c1cccc(C(F)(F)F)c1)N1C(=O)CS(=O)(=O)c2cc(Cl)cnc21` (stereo not shown) [Compound I-9], the IC50 was determined as 0.11 µM. Molecule `CC(C)c1nc2c(s1)SCC(=O)N2Cc1cccc(C(F)(F)F)c1` [II-19] yielded an IC50 of 0.34 µM. Compared with the last molecule, the IC50 is about 3.1-fold higher. For the molecule `CC(C)c1nc2c(s1)SCC(=O)N2C(C)c1cccc(C(F)(F)F)c1` (stereo not shown) [II-21], the IC50 is 0.4 µM.

On to `O=C1CS(=O)(=O)c2ccsc2N1Cc1ccc(F)c(OC(F)(F)F)c1` [Compound I-39], for which it took 0.039 µM to reach half-maximal inhibition (IC50). This IC50 lies about 10-fold lower than the previous one. `O=C1CSc2nc(C3CC3)sc2N1Cc1cccc(C(F)(F)F)c1` [II-14]: the IC50 is 1.6 µM. The molecule `Cc1nc2c(s1)SCC(=O)N2Cc1cccc(C(F)(F)F)c1` [II-22] came in with an IC50 of 0.073 µM. Compared with the last molecule, the IC50 is about 22-fold lower. Turning to `Cc1nc2c(s1)N(Cc1cccc(C(F)(F)F)c1)C(=O)CS2` [II-15], it took 0.49 µM to reach half-maximal inhibition (IC50). The same measure, in the same setting: for `O=C1CS(=O)(=O)c2nc(C3CC3)sc2N1Cc1cccc(C(F)(F)F)c1` [Compound I-30] the value was 4.3 µM; for `Cc1nc2c(s1)N(Cc1cccc(C(F)(F)F)c1)C(=O)CS2(=O)=O` [Compound I-28], 4 µM. The same measure, in the same setting: the result for `CC(C)c1nc2c(s1)SCC(=O)N2Cc1ccc(F)c(OC(F)(F)F)c1` [II-18] reads 0.25 µM; that for `O=C1CS(=O)(=O)c2cc(Cl)cnc2N1Cc1ccc(F)c(OC(F)(F)F)c1` [Compound I-15], 0.092 µM. In turn, `O=C1CS(=O)(=O)c2cccnc2N1Cc1cccc(C(F)(F)F)c1` [Compound I-1] gave an IC50 of 0.29 µM. This IC50 is about 3.2-fold higher than that of the molecule before.

Molecule `O=C1CSc2cccnc2N1Cc1ccc(Cl)c(SC(F)(F)F)c1` [II-7] had an IC50 of 0.052 µM. In turn, `O=C1CS(=O)(=O)c2cccnc2N1Cc1ccc(Cl)c(S(=O)(=O)C(F)(F)F)c1` [Compound I-13] registered an IC50 of 0.83 µM. This IC50 is about 16-fold higher than that of the molecule before.

`Cc1nc2c(s1)N(Cc1cccc(OC(F)(F)F)c1)C(=O)CS2(=O)=O` [Compound I-29] had an IC50 of 2.4 µM. This IC50 lies about 2.9-fold higher than the previous one. As to `O=C1CS(=O)(=O)c2cc(Cl)cnc2N1Cc1ccc(Cl)c(C(F)(F)F)c1` [Compound I-10], the IC50 was determined as 0.18 µM. Still for that read-out and setting: the result for `NC(=O)c1ccc2c(n1)N(Cc1ccc(Cl)c(C(F)(F)F)c1)C(=O)CS2(=O)=O` [Compound I-20] reads 0.49 µM.

In turn, `COC(=O)c1cc2c(s1)S(=O)(=O)CC(=O)N2Cc1cccc(OC(F)(F)F)c1` [Compound I-42] gave an IC50 of 0.15 µM.

In the case of `O=C1CS(=O)(=O)c2cccnc2N1CCc1ccccc1C(F)(F)F` [Compound I-6], the IC50 worked out at 5 µM. The molecule `O=C1CS(=O)(=O)c2nccnc2N1Cc1ccc(F)c(OC(F)(F)F)c1` [Compound I-23] yielded an IC50 of 0.17 µM.

In the case of `Cc1nc2c(s1)N(Cc1ccc(F)c(OC(F)(F)F)c1)C(=O)CS2(=O)=O` [Compound I-27], the IC50 worked out at 0.31 µM. Molecule `O=C1CS(=O)(=O)c2cccnc2N1Cc1ccc(Cl)c(OC(F)(F)F)c1` [Compound I-12] registered an IC50 of 0.077 µM. Against the preceding molecule, the IC50 is about 4-fold lower. Same read-out and setting: for `COC(=O)c1cc2c(s1)S(=O)(=O)CC(=O)N2C(C)c1cccc(C(F)(F)F)c1` (stereo not shown) [Compound I-43] the value was 0.12 µM. For the molecule `CC(C)c1nc2c(s1)S(=O)(=O)CC(=O)N2Cc1ccc(F)c(OC(F)(F)F)c1` [Compound I-34], the IC50 is 0.096 µM. Still for that read-out and setting: for `O=C1CSc2ncsc2N1Cc1cccc(C(F)(F)F)c1` [II-2, 7-(3-trifluoromethyl-benzyl)-7H-thiazolo[4,5-b][1,4]thiazin-6-one] the value was 0.32 µM; for `CC(c1cccc(C(F)(F)F)c1)N1C(=O)CS(=O)(=O)c2ncsc21` (stereo not shown) [Compound I-32], 1 µM; for `O=C1CS(=O)(=O)c2nccnc2N1Cc1cccc(C(F)(F)F)c1` [Compound I-24], 2.6 µM.

`Cc1nc2c(s1)N(Cc1cccc(OC(F)(F)F)c1)C(=O)CS2` [II-12] yielded an IC50 of 0.26 µM.

`Cc1nc2c(s1)SCC(=O)N2C(C)c1cccc(C(F)(F)F)c1` (stereo not shown) [II-23]: the IC50 was determined as 0.067 µM. In the case of `CC(c1cc(C(F)(F)F)ccn1)N1C(=O)CS(=O)(=O)c2cccnc21` (stereo not shown) [Compound I-8], half-maximal inhibition (IC50) required 1.9 µM. Same read-out and setting: the result for `CC(C)c1nc2c(s1)S(=O)(=O)CC(=O)N2Cc1cccc(C(F)(F)F)c1` [Compound I-35] reads 0.24 µM. With `CC(c1cccc(C(F)(F)F)c1)N1C(=O)CS(=O)(=O)c2ccsc21` (stereo not shown) [Compound I-38], the IC50 was found to be 0.071 µM. `O=C1CSc2ccc(CO)nc2N1Cc1ccc(Cl)c(C(F)(F)F)c1` [II-11] registered an IC50 of 0.066 µM. This IC50 and that of the molecule before are within 1.5-fold of each other.

The molecule `CC(c1ccc(Cl)c(C(F)(F)F)c1)N1C(=O)CS(=O)(=O)c2cccnc21` (stereo not shown) [Compound I-4] had an IC50 of 0.14 µM. In turn, `O=C1CS(=O)(=O)c2cccnc2N1Cc1ccc(F)c(OC(F)(F)F)c1` [Compound I-5] gave an IC50 of 0.049 µM. The same measure, in the same setting: for `C[C@@H](c1cccc(C(F)(F)F)c1)N1C(=O)CS(=O)(=O)c2nccnc21` [Compound I-22, 1,1-dioxo-4-[(S)-1-(3-trifluoromethyl-phenyl)-ethyl]-1,4-dihydro-2H-11ambda*6*-pyrazino[2,3-b][1,4]thiazin-3-one] the value was 1.1 µM. The same measure, in the same setting: the result for `O=C1CS(=O)(=O)c2cccnc2N1Cc1ccc(Cl)c(C(F)(F)F)c1` [Compound I-3] reads 0.18 µM. Same read-out and setting: for `O=C1CS(=O)(=O)c2ncsc2N1Cc1ccc(F)c(OC(F)(F)F)c1` [Compound I-26] the value was 0.51 µM. Regarding `O=C1CS(=O)(=O)c2scnc2N1Cc1ccc(F)c(OC(F)(F)F)c1` [Compound I-33], the IC50 is 0.11 µM.

`COC(=O)c1cc2c(s1)S(=O)(=O)CC(=O)N2Cc1cccc(C(F)(F)F)c1` [Compound I-41]: the midpoint of inhibition, the IC50, lay at 0.19 µM. Same read-out and setting: the result for `CC(c1cccc(C(F)(F)F)c1)N1C(=O)CS(=O)(=O)c2ccc(C(=O)N(C)C)nc21` (stereo not shown) [Compound I-19] reads 2.2 µM. Still for that read-out and setting: the result for `CC(C)c1nc2c(s1)SCC(=O)N2Cc1cccc(OC(F)(F)F)c1` [II-20] reads 0.51 µM; that for `Cc1nc2c(s1)S(=O)(=O)CC(=O)N2Cc1cccc(C(F)(F)F)c1` [Compound I-37], 0.23 µM.

In a further test the test system is mice.
Test: not given
Conditions: UUO-induced, treated mice; cited from earlier work.
Regarding `Clc1ccccc1C(c1ccccc1)(c1ccccc1)n1cccn1` [TRAM-34], the “progression of renal fibrosis” value was “attenuated progression of renal fibrosis”.

The test system of a further test is aortas of ApoE−/− mice.
Test: not given
The note with it: cited from earlier work.
On to `Clc1ccccc1C(c1ccccc1)(c1ccccc1)n1cccn1` [TRAM-34], for which the development of atherosclerosis entry is on record as “significantly reduces the development of atherosclerosis”. In the case of `Clc1ccccc1C(c1ccccc1)(c1ccccc1)n1ccnc1` [clotrimazole], the development of atherosclerosis result is “significantly reduces the development of atherosclerosis”.

The subject of another test is C57BL/6 mice.
Test: not given
Conditions: MOG35-55 peptide induced; cited from earlier work.
Consider `Clc1ccccc1C(c1ccccc1)(c1ccccc1)n1cccn1` [TRAM-34], for which the “inhibition in EAE model” value is “inhibits”.
